From the supplement of paper PMC10307832

How the values were obtained:
Assay in all cases: relative viability (nuclei count vs DMSO), 5 days (fraction); higher = more cells survive
NCI-H2170 = test system: NCI-H2170
Procedure, shortened: (§1)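 Nuclei were stained with Hoechst during a one-step fixation (final 0.05% Triton X-100, 1% formaldehyde, 1 ug/ml Hoechst) carried out 5 days after dosing, then counted on 4× images. The cells, lung cancer lines in 1536-well plates, had been dosed by pin tool the day after seeding with one drug alone or a fixed anchor-drug dose plus five library-drug doses (not always all listed) in √10 steps. Relative viability is the nuclei count in treated wells divided by that in vehicle wells, and each value is the median of duplicate plates.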

NCI-H520 = test system: NCI-H520
Procedure, shortened: as §1

EMC-BAC-2 = test system: EMC-BAC-2
Procedure, shortened: as §1

NCI-H1993 = test system: NCI-H1993
Procedure, shortened: as §1

PC-3 [JPC-3] = test system: PC-3 [JPC-3]
Procedure, shortened: as §1

NCI-H1975 = test system: NCI-H1975
Procedure, shortened: as §1

LCLC-97TM1 = test system: LCLC-97TM1
Procedure, shortened: as §1

NCI-H1944 = test system: NCI-H1944
Procedure, shortened: as §1

NCI-H1793 = test system: NCI-H1793
Procedure, shortened: as §1

NCI-H2009 = test system: NCI-H2009
Procedure, shortened: as §1

NCI-H1666 = test system: NCI-H1666
Procedure, shortened: as §1

PC-14 = test system: PC-14
Procedure, shortened: as §1

NCI-H522 = test system: NCI-H522
Procedure, shortened: as §1

NCI-H647 = test system: NCI-H647
Procedure, shortened: as §1

SW 1573 = test system: SW 1573
Procedure, shortened: as §1

NCI-H727 = test system: NCI-H727
Procedure, shortened: as §1

NCI-H460 = test system: NCI-H460
Procedure, shortened: as §1

NCI-H2126 = test system: NCI-H2126
Procedure, shortened: as §1

NCI-H1755 = test system: NCI-H1755
Procedure, shortened: as §1

SK-LU-1 = test system: SK-LU-1
Procedure, shortened: as §1

NCI-H2347 = test system: NCI-H2347
Procedure, shortened: as §1

**Q.** `COCC1(CO)C(=O)C2CCN1CC2` (configuration not stated) [PRIMA-1MET] + Cc1cc(Nc2cc(N3CCN(C)CC3)nc(Sc3ccc(NC(=O)C4CC4)cc3)n2)n[nH]1 [Tozasertib] (partner 0.1 µM) was tested. Which relative viability (NCI-H2170; first compound 0.2 µM) did it give?
**A.** 0.9

**Q.** And the relative viability (NCI-H2170; first compound 0.6325 µM)?
**A.** 0.671

**Q.** What about the relative viability (NCI-H2170; first compound 2 µM) of the same compound?
**A.** 0.677

**Q.** What about the relative viability (NCI-H2170; first compound 6.325 µM) of the same compound?
**A.** 0.722

**Q.** And the relative viability (NCI-H2170; first compound 20 µM)?
**A.** 0.678

**Q.** And the relative viability (NCI-H520; first compound 0.2 µM)?
**A.** 0.402

**Q.** And the relative viability (NCI-H520; first compound 0.6325 µM)?
**A.** 0.416

**Q.** And the relative viability (NCI-H520; first compound 6.325 µM)?
**A.** 0.384

**Q.** What about the relative viability (NCI-H520; first compound 20 µM) of the same compound?
**A.** 0.236

**Q.** What about the relative viability (EMC-BAC-2; first compound 0.2 µM) of the same compound?
**A.** 0.335

**Q.** What about the relative viability (EMC-BAC-2; first compound 0.6325 µM) of the same compound?
**A.** 0.332

**Q.** And the relative viability (EMC-BAC-2; first compound 6.325 µM)?
**A.** 0.277

**Q.** And the relative viability (EMC-BAC-2; first compound 20 µM)?
**A.** 0.191

**Q.** What about the relative viability (NCI-H1993; first compound 0.2 µM) of the same compound?
**A.** 0.674

**Q.** And the relative viability (NCI-H1993; first compound 0.6325 µM)?
**A.** 0.541

**Q.** And the relative viability (NCI-H1993; first compound 2 µM)?
**A.** 0.566

**Q.** And the relative viability (NCI-H1993; first compound 6.325 µM)?
**A.** 0.569

**Q.** What about the relative viability (NCI-H1993; first compound 20 µM) of the same compound?
**A.** 0.662

**Q.** And the relative viability (PC-3 [JPC-3]; first compound 0.2 µM)?
**A.** 0.996

**Q.** What about the relative viability (PC-3 [JPC-3]; first compound 0.6325 µM) of the same compound?
**A.** 0.856

**Q.** What about the relative viability (PC-3 [JPC-3]; first compound 2 µM) of the same compound?
**A.** 0.857

**Q.** And the relative viability (PC-3 [JPC-3]; first compound 6.325 µM)?
**A.** 0.89

**Q.** What about the relative viability (PC-3 [JPC-3]; first compound 20 µM) of the same compound?
**A.** 0.873

**Q.** What about the relative viability (NCI-H1975; first compound 0.2 µM) of the same compound?
**A.** 1.05

**Q.** And the relative viability (NCI-H1975; first compound 0.6325 µM)?
**A.** 0.726

**Q.** And the relative viability (NCI-H1975; first compound 2 µM)?
**A.** 0.878

**Q.** And the relative viability (NCI-H1975; first compound 6.325 µM)?
**A.** 0.738

**Q.** And the relative viability (NCI-H1975; first compound 20 µM)?
**A.** 0.454

**Q.** What about the relative viability (LCLC-97TM1; first compound 0.2 µM) of the same compound?
**A.** 0.237

**Q.** What about the relative viability (LCLC-97TM1; first compound 0.6325 µM) of the same compound?
**A.** 0.239

**Q.** What about the relative viability (LCLC-97TM1; first compound 2 µM) of the same compound?
**A.** 0.325

**Q.** What about the relative viability (LCLC-97TM1; first compound 6.325 µM) of the same compound?
**A.** 0.204

**Q.** What about the relative viability (LCLC-97TM1; first compound 20 µM) of the same compound?
**A.** 0.123

**Q.** What about the relative viability (NCI-H1944; first compound 0.2 µM) of the same compound?
**A.** 0.225

**Q.** And the relative viability (NCI-H1944; first compound 0.6325 µM)?
**A.** 0.242

**Q.** What about the relative viability (NCI-H1944; first compound 2 µM) of the same compound?
**A.** 0.222

**Q.** And the relative viability (NCI-H1944; first compound 6.325 µM)?
**A.** 0.243

**Q.** And the relative viability (NCI-H1944; first compound 20 µM)?
**A.** 0.23

**Q.** And the relative viability (NCI-H1793; first compound 0.2 µM)?
**A.** 0.44

**Q.** What about the relative viability (NCI-H1793; first compound 0.6325 µM) of the same compound?
**A.** 0.316

**Q.** What about the relative viability (NCI-H1793; first compound 6.325 µM) of the same compound?
**A.** 0.414

**Q.** And the relative viability (NCI-H1793; first compound 20 µM)?
**A.** 0.237

**Q.** And the relative viability (NCI-H2009; first compound 0.2 µM)?
**A.** 0.846

**Q.** And the relative viability (NCI-H2009; first compound 0.6325 µM)?
**A.** 0.742

**Q.** What about the relative viability (NCI-H2009; first compound 2 µM) of the same compound?
**A.** 0.948

**Q.** What about the relative viability (NCI-H2009; first compound 6.325 µM) of the same compound?
**A.** 0.726

**Q.** What about the relative viability (NCI-H2009; first compound 20 µM) of the same compound?
**A.** 0.0462

**Q.** And the relative viability (NCI-H1666; first compound 0.2 µM)?
**A.** 0.592

**Q.** And the relative viability (NCI-H1666; first compound 0.6325 µM)?
**A.** 0.601

**Q.** What about the relative viability (NCI-H1666; first compound 2 µM) of the same compound?
**A.** 0.66

**Q.** What about the relative viability (NCI-H1666; first compound 6.325 µM) of the same compound?
**A.** 0.554

**Q.** And the relative viability (NCI-H1666; first compound 20 µM)?
**A.** 0.388

**Q.** What about the relative viability (PC-14; first compound 0.2 µM) of the same compound?
**A.** 0.629

**Q.** What about the relative viability (PC-14; first compound 0.6325 µM) of the same compound?
**A.** 0.55

**Q.** What about the relative viability (PC-14; first compound 2 µM) of the same compound?
**A.** 0.519

**Q.** What about the relative viability (PC-14; first compound 6.325 µM) of the same compound?
**A.** 0.714

**Q.** What about the relative viability (PC-14; first compound 20 µM) of the same compound?
**A.** 0.386

**Q.** What about the relative viability (NCI-H522; first compound 0.2 µM) of the same compound?
**A.** 0.602

**Q.** And the relative viability (NCI-H522; first compound 0.6325 µM)?
**A.** 0.455

**Q.** And the relative viability (NCI-H522; first compound 2 µM)?
**A.** 0.46

**Q.** What about the relative viability (NCI-H522; first compound 6.325 µM) of the same compound?
**A.** 0.507

**Q.** What about the relative viability (NCI-H522; first compound 20 µM) of the same compound?
**A.** 0.0873

**Q.** And the relative viability (NCI-H647; first compound 0.2 µM)?
**A.** 0.615

**Q.** And the relative viability (NCI-H647; first compound 0.6325 µM)?
**A.** 0.324

**Q.** And the relative viability (NCI-H647; first compound 2 µM)?
**A.** 0.263

**Q.** What about the relative viability (NCI-H647; first compound 6.325 µM) of the same compound?
**A.** 0.543

**Q.** And the relative viability (NCI-H647; first compound 20 µM)?
**A.** 0.0988

**Q.** And the relative viability (SW 1573; first compound 0.2 µM)?
**A.** 0.189

**Q.** What about the relative viability (SW 1573; first compound 0.6325 µM) of the same compound?
**A.** 0.0874

**Q.** What about the relative viability (SW 1573; first compound 2 µM) of the same compound?
**A.** 0.191

**Q.** What about the relative viability (SW 1573; first compound 6.325 µM) of the same compound?
**A.** 0.0585

**Q.** What about the relative viability (SW 1573; first compound 20 µM) of the same compound?
**A.** 0.0263

**Q.** What about the relative viability (NCI-H727; first compound 0.2 µM) of the same compound?
**A.** 0.549

**Q.** And the relative viability (NCI-H727; first compound 0.6325 µM)?
**A.** 0.543

**Q.** What about the relative viability (NCI-H727; first compound 2 µM) of the same compound?
**A.** 0.643

**Q.** What about the relative viability (NCI-H727; first compound 6.325 µM) of the same compound?
**A.** 0.487

**Q.** And the relative viability (NCI-H727; first compound 20 µM)?
**A.** 0.293

**Q.** And the relative viability (NCI-H460; first compound 0.2 µM)?
**A.** 0.443

**Q.** What about the relative viability (NCI-H460; first compound 0.6325 µM) of the same compound?
**A.** 0.312

**Q.** And the relative viability (NCI-H460; first compound 2 µM)?
**A.** 0.311

**Q.** And the relative viability (NCI-H460; first compound 6.325 µM)?
**A.** 0.5

**Q.** What about the relative viability (NCI-H460; first compound 20 µM) of the same compound?
**A.** 0.0183

**Q.** And the relative viability (NCI-H2126; first compound 0.2 µM)?
**A.** 1.07

**Q.** And the relative viability (NCI-H2126; first compound 0.6325 µM)?
**A.** 0.868

**Q.** And the relative viability (NCI-H2126; first compound 2 µM)?
**A.** 0.854

**Q.** And the relative viability (NCI-H2126; first compound 6.325 µM)?
**A.** 0.898

**Q.** What about the relative viability (NCI-H2126; first compound 20 µM) of the same compound?
**A.** 0.807

**Q.** And the relative viability (NCI-H1755; first compound 0.2 µM)?
**A.** 0.699

**Q.** And the relative viability (NCI-H1755; first compound 0.6325 µM)?
**A.** 0.596

**Q.** What about the relative viability (NCI-H1755; first compound 2 µM) of the same compound?
**A.** 0.509

**Q.** And the relative viability (NCI-H1755; first compound 6.325 µM)?
**A.** 0.554

**Q.** And the relative viability (NCI-H1755; first compound 20 µM)?
**A.** 0.455

**Q.** What about the relative viability (SK-LU-1; first compound 0.2 µM) of the same compound?
**A.** 0.4

**Q.** What about the relative viability (SK-LU-1; first compound 0.6325 µM) of the same compound?
**A.** 0.371

**Q.** What about the relative viability (SK-LU-1; first compound 2 µM) of the same compound?
**A.** 0.319

**Q.** What about the relative viability (SK-LU-1; first compound 6.325 µM) of the same compound?
**A.** 0.344

**Q.** What about the relative viability (SK-LU-1; first compound 20 µM) of the same compound?
**A.** 0.24

**Q.** And the relative viability (NCI-H2347; first compound 0.2 µM)?
**A.** 0.566

**Q.** And the relative viability (NCI-H2347; first compound 0.6325 µM)?
**A.** 0.531

**Q.** What about the relative viability (NCI-H2347; first compound 2 µM) of the same compound?
**A.** 0.237

**Q.** What about the relative viability (NCI-H2347; first compound 6.325 µM) of the same compound?
**A.** 0.516

**Q.** What about the relative viability (NCI-H2347; first compound 20 µM) of the same compound?
**A.** 0.433
